Laboratory results taken from patent US9896423B2, “Deuterium substituted 1-[2-(2,4-dimethyl-phenylsulfanyl)-phenyl]piperazine compound or derivatives thereof, and pharmaceutical composition and use thereof” (Jiangsu Jibeier Pharmaceutical Co. Ltd., priority 2014, dated 2018).
Where “and” joins values, the source holds several entries; their conditions need not be identical. Equal values may be shown once. Where a name gives a salt, the structure may show the parent alone. Read-outs that look alike come from different tables or passages of the source.

Legend:
Male ICR mice = test: Mice swimming test; assay type: in vivo; settings: for effect on length of time that the mice stopped swimming vs blank control: two successive weeks; for Duration without Movement within the Last 4 min of the Whole 6 min: mice, gavage once a day for 14 days, n = 10, x ± s
Excerpt: The following method is used for testing the antidepression effect of the compound of the present application. ICR mice or SD rats, gavaged for two successive weeks, were subjected to mice swimming test, mice tail suspension test and rats swimming test. See below for details of the tests and results.
Male ICR mice weighing 18 g to 20 g were used. They were fed on sterilized standard feed.
The compound administered in the test was 1-{2-[2,4-bis(trideuteriomethyl)phenylsulfanyl]phenyl}piperazine hydrobromic acid salt (XX for short). Vortioxetine (YY for short) was used as a control sample. Venlafaxine HCl (from Wyeth, USA) was used as a positive control.
Vortioxetine (15 mg) was combined with 10% hydroxypropyl-β-cyclodextrin to form a solution of 100 mL and was administered at daily dose of 3 mg/kg. 1-{2-[2,4-bis(trideuteriomethyl)phenylsulfanyl]phenyl}piperazine hydrobromic acid salt (15 mg and 7.5 mg) was combined with 10% hydroxypropyl-β-cyclodextrin to form two solutions of 100 mL and was administered at daily doses of 3 mg/kg and 1.5 mg/kg, respectively. Venlafaxine HCl (75 mg) was combined with 0.5% CMC-Na to form a solution of 100 mL and was administered at daily dose of […].
A recording and analysis system for small-animal behavior (Noldus) was used.
All the eighty mice were subjected to prescreening one day before the administration. The mice, fasted for 4 hours were put in a round glass tank (ø 14 cm×h 20 cm, with water of 10 cm depth and at a temperature of 25° C.) to swim. […] The whole swimming course was recorded by the video and the data were collected and analyzed automatically by Noldus software.
The forty qualified mice were divided into 4 groups, each of which had 10 mice, according to the Excel random grouping.
The medicaments were administered to each group by gavage with the amount of 0.2 ml per 10 g of body weight, once a day for 14 successive days. One hour later after the last oral administration, the mice were allowed to swim for 6 min. The video recorded the whole swimming course, and the Noldus software automatically collected and analyzed the data.
The data was given as “average±standard deviation” (x±s). One-way analysis of variance (one-way ANOVA) was used for data difference statistics. Differences among the groups were determined by P<0.05.

[1] = Pharmacokinetic test in rats, gavage administration; assay type: in vivo, SD rats
Procedure: The preferred compound of the present disclosure was assessed in rats for its pharmacokinetic profile.
SD rats, male and female, weighing 150 to 250 g
Mobile phase: 10 mM ammonium formate aqueous solution:methanol=15:85
The ionization source was electrospray ionization source. The detection mode was positive mode. Multiple reaction monitoring (MRM) was used as the scanning mode. The ion reaction for the quantitative analysis was the following: m/z was 305.2\150.0 for XX, and 256.1\167.1 for diphenhydramine (the internal standard).
XX or YY was orally administered with single dose of 20 mg/kg to six SD rats, one half of which were male and the other half was female. XX or YY was dissolved in 10% hydroxypropyl-β-cyclodextrin. […]
After the blood collection, the tubes were immediately gently turned upside down at least five times to ensure sufficient mixing, and placed on ice. Heparin was added for anticoagulation. The samples were centrifuged at 8000 rpm for 5 min to separate serum from erythrocyte. The serum was transferred with a pipettor to 2 mL polypropylene (PP) tubes, which were marked with the name of the compound and the time points, and stored in a refrigerator at −40° C. before LC-MS analysis. Samples with high concentrations were diluted with rat blank plasma.
2.5 μL of Meth-H2O and 5 μL of the internal standard solution (20 ng/mL, IS) were added to 50 μL of the plasma. Subsequently, 150 μL of methanol was added to the mixture to precipitate protein and the samples were then centrifuged at 13000 rpm for 5 min. The upper organic phase was taken out, filtrated with a 0.22 μM microporous membrane, and 2 μL of the sample was injected for the LC-MS analysis.

## [2H]C([2H])([2H])c1ccc(Sc2ccccc2N2CCNCC2)c(C([2H])([2H])[2H])c1 [XX, 1-{2-[2,4-bis(trideuteriomethyl)phenylsulfanyl]phenyl}piperazine hydrobromic acid salt]
Male ICR mice; 1.5 mg/kg gavage
  effect on length of time that the mice stopped swimming vs blank control: markedly shortened
Male ICR mice; 3 mg/kg gavage
  effect on length of time that the mice stopped swimming vs blank control: markedly shortened
Male ICR mice; 1.5 mg/kg
  Duration without Movement within the Last 4 min of the Whole 6 min: 173.4 ± 36.1 s
Male ICR mice; 3 mg/kg
  Duration without Movement within the Last 4 min of the Whole 6 min: 176.3 ± 37.5 s
[1]; 20 mg/kg oral, 10 min (Table 5: 0.167 h) after administration, individual rats 1-6
  Concentrations in Plasma of Rats after Oral Administration: 10.6 ng/mL and 7 ng/mL and 7.88 ng/mL and 24.8 ng/mL and 15.6 ng/mL and 16.2 ng/mL
[1]; 20 mg/kg oral, 1 h, individual rats 1-6
  Concentrations in Plasma of Rats after Oral Administration: 68.4 ng/mL and 83.6 ng/mL and 55.2 ng/mL and 107.6 ng/mL and 144 ng/mL and 115.8 ng/mL
[1]; 20 mg/kg oral, 1.5 h, individual rats 1-6
  Concentrations in Plasma of Rats after Oral Administration: 91.6 ng/mL and 77.4 ng/mL and 120.8 ng/mL and 142.8 ng/mL and 109.6 ng/mL
[1]; 20 mg/kg oral, 2 h, individual rats 1-6
  Concentrations in Plasma of Rats after Oral Administration: 86.6 ng/mL and 77.8 ng/mL and 118.4 ng/mL and 119.6 ng/mL and 108 ng/mL
[1]; 20 mg/kg oral, 3 h, individual rats 1-6
  Concentrations in Plasma of Rats after Oral Administration: 65.8 ng/mL and 53.8 ng/mL and 85.8 ng/mL and 77.6 ng/mL and 71.2 ng/mL
[1]; 20 mg/kg oral, 4 h, individual rats 1-6
  Concentrations in Plasma of Rats after Oral Administration: 60.8 ng/mL and 56 ng/mL and 61.2 ng/mL and 85.6 ng/mL and 63.4 ng/mL
[1]; 20 mg/kg oral, 6 h, individual rats 1-6
  Concentrations in Plasma of Rats after Oral Administration: 48.7 ng/mL and 36.8 ng/mL and 42.8 ng/mL and 54.6 ng/mL and 35.5 ng/mL
[1]; 20 mg/kg oral, 8 h, individual rats 1-6
  Concentrations in Plasma of Rats after Oral Administration: 22.5 ng/mL and 20.9 ng/mL and 31.7 ng/mL and 25.1 ng/mL and 18.9 ng/mL
[1]; 20 mg/kg oral, 10 h, individual rats 1-6
  Concentrations in Plasma of Rats after Oral Administration: 17.9 ng/mL and 15.5 ng/mL and 20.3 ng/mL and 14.9 ng/mL and 13.5 ng/mL
[1]; 20 mg/kg oral, 12 h, individual rats 1-6
  Concentrations in Plasma of Rats after Oral Administration: 8.22 ng/mL and 6.78 ng/mL and 11.3 ng/mL and 7.08 ng/mL and 7.2 ng/mL
[1]; 20 mg/kg oral, 14 h, individual rats 1-6
  Concentrations in Plasma of Rats after Oral Administration: 4.01 ng/mL and 3.56 ng/mL and 7.32 ng/mL and 4.43 ng/mL and 3.11 ng/mL and 3.19 ng/mL
[1]; 20 mg/kg oral, 24 h, individual rats 1-6
  Concentrations in Plasma of Rats after Oral Administration: 1.46 ng/mL and 0.571 ng/mL and 0.368 ng/mL and 1.32 ng/mL and 0.365 ng/mL and 0.389 ng/mL
[1]; both sexes, SD, rat, plasma, po, 20 mg/kg, rats, oral 20 mg/kg vs iv 2 mg/kg, individual rats 1-6, read-out: F %
  bioavailability: 11%
[1]; both sexes, SD, rat, plasma, po, 20 mg/kg, rats, oral 20 mg/kg, individual rats 1-6, read-out: AUC0-1
  AUC(0-t): 524 ng·h/mL
[1]; both sexes, SD, rat, plasma, po, 20 mg/kg, rats, oral 20 mg/kg, individual rats 1-6, read-out: AUC0-∞
  AUC(0-inf): 532 ng·h/mL
[1]; both sexes, SD, rat, plasma, po, 20 mg/kg, rats, oral 20 mg/kg, individual rats 1-6, read-out: Cmax
  Cmax: 78.6 ng/mL
[1]; both sexes, SD, rat, plasma, po, 20 mg/kg, rats, oral 20 mg/kg, individual rats 1-6, read-out: MRT0-∞
  MRT inf: 5.62 h
[1]; both sexes, SD, rat, plasma, po, 20 mg/kg, rats, oral 20 mg/kg, n = 6, read-out: AUC0-1, Mean ± SD
  AUC(0-t): 583 ± 82.7 ng·h/mL
[1]; both sexes, SD, rat, plasma, po, 20 mg/kg, rats, oral 20 mg/kg, n = 6, read-out: AUC0-∞, Mean ± SD
  AUC(0-inf): 586 ± 82.8 ng·h/mL
[1]; both sexes, SD, rat, plasma, po, 20 mg/kg, rats, oral 20 mg/kg, n = 6, read-out: Cmax, Mean ± SD
  Cmax: 105 ± 26.5 ng/mL
[1]; both sexes, SD, rat, plasma, po, 20 mg/kg, rats, oral 20 mg/kg, n = 6, read-out: MRT0-∞, Mean ± SD
  MRT inf: 4.93 ± 0.58 h
[1]; both sexes, SD, rat, plasma, po, 20 mg/kg, rats, oral 20 mg/kg, n = 6, read-out: t1/2, Mean ± SD (converted)
  half-life: 2.92 ± 0.8 h
[1]; both sexes, Sprague-Dawley, rat, plasma, oral, 20 mg/kg, 20 mg/kg oral, 10 min (Table 5: 0.167 h), mean of 6 rats, read-out: Concentrations in Plasma of Rats after Oral Administration, Mean ± SD
  concentration at 10 min: 13.7 ± 6.65 ng/mL
[1]; both sexes, Sprague-Dawley, rat, plasma, oral, 20 mg/kg, 20 mg/kg oral, 0.5 h, mean of 6 rats, read-out: Concentrations in Plasma of Rats after Oral Administration, Mean ± SD
  concentration at 0.5 h: 62.9 ± 19.6 ng/mL
[1]; both sexes, Sprague-Dawley, rat, plasma, oral, 20 mg/kg, 20 mg/kg oral, 1 h, mean of 6 rats, read-out: Concentrations in Plasma of Rats after Oral Administration, Mean ± SD
  concentration at 1 h: 95.8 ± 32.9 ng/mL
[1]; both sexes, Sprague-Dawley, rat, plasma, oral, 20 mg/kg, 20 mg/kg oral, 1.5 h, individual rats 1-6, read-out: Concentrations in Plasma of Rats after Oral Administration
  concentration at 1.5 h: 73.4 ng/mL
